Our source for the DC50 values is patent US12091411B2, “IRAK degraders and uses thereof” (Kymera Therapeutics, Inc., priority 2022, dated 2024).

Like-named read-outs stand apart in the source and are kept apart here.

The experiment has as its target T1, IRAK4 (Homo sapiens, UniProt Q9NWZ3).
T1 construct: Degradation of IRAK4 in OCI-LY10 was quantitatively measured using Meso Scale Discovery technology; endogenous in cells; host or cells: OCI-LY10
T1 sequence (Q9NWZ3 1-460): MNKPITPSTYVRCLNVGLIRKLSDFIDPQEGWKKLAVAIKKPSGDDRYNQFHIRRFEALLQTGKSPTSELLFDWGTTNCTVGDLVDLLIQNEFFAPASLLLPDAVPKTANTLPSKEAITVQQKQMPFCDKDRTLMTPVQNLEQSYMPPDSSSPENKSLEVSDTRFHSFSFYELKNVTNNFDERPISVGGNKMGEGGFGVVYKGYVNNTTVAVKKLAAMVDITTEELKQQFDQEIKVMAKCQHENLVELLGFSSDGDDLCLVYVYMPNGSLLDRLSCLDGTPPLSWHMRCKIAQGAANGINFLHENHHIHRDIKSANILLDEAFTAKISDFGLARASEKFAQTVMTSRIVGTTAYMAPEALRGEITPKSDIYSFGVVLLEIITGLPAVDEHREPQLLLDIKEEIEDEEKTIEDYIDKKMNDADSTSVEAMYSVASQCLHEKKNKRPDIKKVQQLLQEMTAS
The experiment can be described thus: IRAK4 MSD Degradation in OCI-LY10. The experiment is classed as cell-based. The settings on record: OCI-LY10 cells, MSD. The essentials:
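DC50, from a three-parameter logistic fit and reported as letter bins A (<0.01 μM), B, C, D (>0.2 μM or not tested), reflects IRAK4 loss measured by MSD electrochemiluminescence in OCI-LY10 lysates. Treatment: 8 doses, 1:3 steps, top 1 to 10 μM, 4 to 24 h, 37 °C.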

[1] abbreviates: 4 hrs incubation, read-out: IRAK4 degradation in OCI-LY10 at 4 hrs: DC50.
The mark [2] stands for this setting: 24 hrs incubation, read-out: IRAK4 degradation in OCI-LY10 at 24 hrs: DC50.

What is called DC50 is the concentration giving 50% degradation. `CN(C[C@H]1CC[C@H](n2cc(NC(=O)c3cnn4ccc(N5CCC(C)(C)CC5)nc34)c(C(F)F)n2)CC1)C1CCN(c2cccc3c2n(C)c(=O)n3C2CCC(=O)NC2=O)CC1(F)F` (stereo partly drawn) [I-516]: the DC50 was > 200 nM under setting [1] and > 200 nM under setting [2].
In the case of `CN(C[C@H]1CC[C@H](n2cc(NC(=O)c3cnn4ccc(N5CCCC(C)(C)C5)nc34)c(C(F)F)n2)CC1)C1CCN(c2cccc3c2n(C)c(=O)n3C2CCC(=O)NC2=O)CC1(F)F` (stereo partly drawn) [I-517], the DC50 is, setting by setting: under setting [1], > 200 nM; under setting [2], > 200 nM.
On to `CN(C[C@H]1CC[C@H](n2cc(NC(=O)c3cnn4ccc(N5CCCCC5(C)C)nc34)c(C(F)F)n2)CC1)C1CCN(c2cccc3c2n(C)c(=O)n3C2CCC(=O)NC2=O)CC1(F)F` (stereo partly drawn) [I-518], for which the DC50 was > 200 nM under setting [1] and > 200 nM under setting [2].
In the case of `CN(C[C@H]1CC[C@H](n2cc(NC(=O)c3cnn4ccc(N5CCC(F)(F)CC5)nc34)c(C(F)F)n2)CC1)C1CCN(c2cccc3c2n(C)c(=O)n3C2CCC(=O)NC2=O)CC1(F)F` (stereo partly drawn) [I-519], the DC50 is > 200 nM under setting [1] and > 200 nM under setting [2].
Take `CC1CCN(c2ccn3ncc(C(=O)Nc4cn([C@H]5CC[C@H](CN(C)C6CCN(c7cccc8c7n(C)c(=O)n8C7CCC(=O)NC7=O)CC6(F)F)CC5)nc4C(F)F)c3n2)CC1` (stereo partly drawn) [I-520]: the DC50 under setting [1] was > 200 nM and the DC50 under setting [2] was > 200 nM.
On to `CN(C[C@H]1CC[C@H](n2cc(NC(=O)c3cnn4ccc(N5CCC6(CC5)CC6)nc34)c(C(F)F)n2)CC1)C1CCN(c2cccc3c2n(C)c(=O)n3C2CCC(=O)NC2=O)CC1(F)F` (stereo partly drawn) [I-521], for which the DC50 is, setting by setting: under setting [1], > 200 nM; under setting [2], > 200 nM.
`CN(C[C@H]1CC[C@H](n2cc(NC(=O)c3cnn4ccc(N5CCOCC5)nc34)c(C(F)F)n2)CC1)C1CCN(c2cccc3c2n(C)c(=O)n3C2CCC(=O)NC2=O)CC1(F)F` (stereo partly drawn) [I-522]: the DC50 was > 200 nM under setting [1] and 10 to 100 nM under setting [2].
The corresponding values for `CN(C[C@H]1CC[C@H](n2cc(NC(=O)c3cnn4ccc(N5C[C@@H]6C[C@H]5CO6)nc34)c(C(F)F)n2)CC1)C1CCN(c2cccc3c2n(C)c(=O)n3C2CCC(=O)NC2=O)CC1(F)F` (stereo partly drawn) [I-523] are > 200 nM and 10 to 100 nM.
On the same counts, the results for `CN(C[C@H]1CC[C@H](n2cc(NC(=O)c3cnn4ccc(N5C6COCC5C6)nc34)c(C(F)F)n2)CC1)C1CCN(c2cccc3c2n(C)c(=O)n3C2CCC(=O)NC2=O)CC1(F)F` (stereo partly drawn) [I-524] are > 200 nM and 10 to 100 nM.
The corresponding values for `CN(C[C@H]1CC[C@H](n2cc(NC(=O)c3cnn4ccc(N5CC6CC(C5)O6)nc34)c(C(F)F)n2)CC1)C1CCN(c2cccc3c2n(C)c(=O)n3C2CCC(=O)NC2=O)CC1(F)F` (stereo partly drawn) [I-525] are > 200 nM and < 10 nM.
Take `CN(C[C@H]1CC[C@H](n2cc(NC(=O)c3cnn4ccc(N5CC6CCC(C5)O6)nc34)c(C(F)F)n2)CC1)C1CCN(c2cccc3c2n(C)c(=O)n3C2CCC(=O)NC2=O)CC1(F)F` (stereo partly drawn) [I-526]: the DC50 under setting [1] was > 200 nM and the DC50 under setting [2] was 10 to 100 nM.
Turning to `CN(C[C@H]1CC[C@H](n2cc(NC(=O)c3cnn4ccc(N5C6CCC5COC6)nc34)c(C(F)F)n2)CC1)C1CCN(c2cccc3c2n(C)c(=O)n3C2CCC(=O)NC2=O)CC1(F)F` (stereo partly drawn) [I-527], the DC50 by setting is: under setting [1], > 200 nM; under setting [2], 10 to 100 nM.
On the same counts, the results for `C[C@H]1CN(c2ccn3ncc(C(=O)Nc4cn([C@H]5CC[C@H](CN(C)C6CCN(c7cccc8c7n(C)c(=O)n8C7CCC(=O)NC7=O)CC6(F)F)CC5)nc4C(F)F)c3n2)CCO1` (stereo partly drawn) [I-528] are > 200 nM and 10 to 100 nM.
The corresponding values for `C[C@@H]1CN(c2ccn3ncc(C(=O)Nc4cn([C@H]5CC[C@H](CN(C)C6CCN(c7cccc8c7n(C)c(=O)n8C7CCC(=O)NC7=O)CC6(F)F)CC5)nc4C(F)F)c3n2)CCO1` (stereo partly drawn) [I-529] are > 200 nM and 10 to 100 nM.
The corresponding values for `CN(C[C@H]1CC[C@H](n2cc(NC(=O)c3cnn4ccc(N5CCOC(C)(C)C5)nc34)c(C(F)F)n2)CC1)C1CCN(c2cccc3c2n(C)c(=O)n3C2CCC(=O)NC2=O)CC1(F)F` (stereo partly drawn) [I-530] are > 200 nM and 10 to 100 nM.
Regarding `CN(C[C@H]1CC[C@H](n2cc(NC(=O)c3cnn4ccc(N5CC(C)(C)OC(C)(C)C5)nc34)c(C(F)F)n2)CC1)C1CCN(c2cccc3c2n(C)c(=O)n3C2CCC(=O)NC2=O)CC1(F)F` (stereo partly drawn) [I-531], the DC50 reads like this: under setting [1], > 200 nM; under setting [2], > 200 nM.
With `C[C@@H]1CN(c2ccn3ncc(C(=O)Nc4cn([C@H]5CC[C@H](CN(C)C6CCN(c7cccc8c7n(C)c(=O)n8C7CCC(=O)NC7=O)CC6(F)F)CC5)nc4C(F)F)c3n2)C[C@H](C)O1` (stereo partly drawn) [I-532], the DC50 is > 200 nM under setting [1] and > 200 nM under setting [2].
For `C[C@H]1CN(c2ccn3ncc(C(=O)Nc4cn([C@H]5CC[C@H](CN(C)C6CCN(c7cccc8c7n(C)c(=O)n8C7CCC(=O)NC7=O)CC6(F)F)CC5)nc4C(F)F)c3n2)C[C@H](C)O1` (stereo partly drawn) [I-533], the DC50 is > 200 nM under setting [1] and > 200 nM under setting [2].
`CN(C[C@H]1CC[C@H](n2cc(NC(=O)c3cnn4ccc(N5CCO[C@@H](C(F)F)C5)nc34)c(C(F)F)n2)CC1)C1CCN(c2cccc3c2n(C)c(=O)n3C2CCC(=O)NC2=O)CC1(F)F` (stereo partly drawn) [I-535]: the DC50 was > 200 nM under setting [1] and > 200 nM under setting [2].
Consider `CN(C[C@H]1CC[C@H](n2cc(NC(=O)c3cnn4ccc(N5CCO[C@H](C(F)F)C5)nc34)c(C(F)F)n2)CC1)C1CCN(c2cccc3c2n(C)c(=O)n3C2CCC(=O)NC2=O)CC1(F)F` (stereo partly drawn) [I-536], for which the DC50 reads like this: under setting [1], > 200 nM; under setting [2], > 200 nM.
As to `CN(C[C@H]1CC[C@H](n2cc(NC(=O)c3cnn4ccc(N5CCO[C@@H](C(F)(F)F)C5)nc34)c(C(F)F)n2)CC1)C1CCN(c2cccc3c2n(C)c(=O)n3C2CCC(=O)NC2=O)CC1(F)F` (stereo partly drawn) [I-537], the DC50 under setting [1] was > 200 nM and the DC50 under setting [2] was > 200 nM.
`CN(C[C@H]1CC[C@H](n2cc(NC(=O)c3cnn4ccc(N5CCO[C@H](C(F)(F)F)C5)nc34)c(C(F)F)n2)CC1)C1CCN(c2cccc3c2n(C)c(=O)n3C2CCC(=O)NC2=O)CC1(F)F` (stereo partly drawn) [I-538]: the DC50 under setting [1] was > 200 nM and the DC50 under setting [2] was > 200 nM.
Consider `CN(C[C@H]1CC[C@H](n2cc(NC(=O)c3cnn4ccc(N5CCOC6(CC6)C5)nc34)c(C(F)F)n2)CC1)C1CCN(c2cccc3c2n(C)c(=O)n3C2CCC(=O)NC2=O)CC1(F)F` (stereo partly drawn) [I-539], for which the DC50 was > 200 nM under setting [1] and > 200 nM under setting [2].
As to `CN(C[C@H]1CC[C@H](n2cc(NC(=O)c3cnn4ccc(N5CCOC6(CCC6)C5)nc34)c(C(F)F)n2)CC1)C1CCN(c2cccc3c2n(C)c(=O)n3C2CCC(=O)NC2=O)CC1(F)F` (stereo partly drawn) [I-540], the DC50 runs as follows: under setting [1], > 200 nM; under setting [2], > 200 nM.
In the case of `CN(C[C@H]1CC[C@H](n2cc(NC(=O)c3cnn4ccc(N5CCSCC5)nc34)c(C(F)F)n2)CC1)C1CCN(c2cccc3c2n(C)c(=O)n3C2CCC(=O)NC2=O)CC1(F)F` (stereo partly drawn) [I-541], the DC50 was > 200 nM under setting [1] and > 200 nM under setting [2].
As for `CN(C[C@H]1CC[C@H](n2cc(NC(=O)c3cnn4ccc(N5CCS(=O)(=O)CC5)nc34)c(C(F)F)n2)CC1)C1CCN(c2cccc3c2n(C)c(=O)n3C2CCC(=O)NC2=O)CC1(F)F` (stereo partly drawn) [I-542], the DC50 reads like this: under setting [1], > 200 nM; under setting [2], > 200 nM.
As for `CN(C[C@H]1CC[C@H](n2cc(NC(=O)c3cnn4ccc(N5CCCCCC5)nc34)c(C(F)F)n2)CC1)C1CCN(c2cccc3c2n(C)c(=O)n3C2CCC(=O)NC2=O)CC1(F)F` (stereo partly drawn) [I-543], the DC50 reads like this: under setting [1], > 200 nM; under setting [2], > 200 nM.
Consider `CN(C[C@H]1CC[C@H](n2cc(NC(=O)c3cnn4ccc(N5CCCOCC5)nc34)c(C(F)F)n2)CC1)C1CCN(c2cccc3c2n(C)c(=O)n3C2CCC(=O)NC2=O)CC1(F)F` (stereo partly drawn) [I-544], for which the DC50 is > 200 nM under setting [1] and 10 to 100 nM under setting [2].
The corresponding values for `Cn1c(=O)n(C2CCC(=O)NC2=O)c2cccc(C3CCN(C[C@H]4CC[C@H](n5cc6cc(NC(=O)c7cccc(C(F)(F)F)n7)c(C(F)F)cc6n5)CC4)CC3F)c21` (stereo partly drawn) [I-545] are > 200 nM and < 10 nM.
For `COc1ccc2c(c1C1CCN(C[C@H]3CC[C@H](n4cc5cc(NC(=O)c6cccc(C(F)(F)F)n6)ncc5n4)CC3)CC1F)n(C)c(=O)n2C1CCC(=O)NC1=O` (stereo partly drawn) [I-546], the DC50 under setting [1] was > 200 nM and the half-maximal degradation concentration (DC50) under setting [2] was > 200 nM.
For the compound `COc1cc2nn([C@H]3CC[C@H](CN4CCC(c5cccc6c5n(C)c(=O)n6C5CCC(=O)NC5=O)C(F)C4)CC3)cc2cc1NC(=O)c1cccc(C(F)(F)F)n1` (stereo partly drawn) [I-547], the DC50 under setting [1] was > 200 nM and the DC50 under setting [2] was < 10 nM.
On the same counts, the results for `Cn1c(=O)n(C2CCC(=O)NC2=O)c2cccc(C3CCN(C[C@H]4CC[C@H](n5cc6cc(NC(=O)c7cccc(C(F)(F)F)n7)c(C#N)cc6n5)CC4)CC3F)c21` (stereo partly drawn) [I-548] are > 200 nM and < 10 nM.
On the same counts, the results for `Cn1c(=O)n(C2CCC(=O)NC2=O)c2cccc(C3CCN(C[C@H]4CC[C@H](n5cc6cc(NC(=O)c7cccc(C(F)(F)F)n7)ncc6n5)CC4)CC3F)c21` (stereo partly drawn) [I-549] are > 200 nM and < 10 nM.
